Test results taken from patent publication US12679843B2, “Pyrrolopyrimidine amines as complement inhibitors” (BioCryst Pharmaceuticals, Inc., priority 2020, dated 2026).

These compounds were tested against Factor D (Homo sapiens, UniProt P00746) (assay: Factor D esterolytic assay (Z-Lys-SBzl thioester substrate, DTNB, 405 nm)). Details: substrate Z-Lys-SBzl 1.29 mM, 100 mM HEPES, 500 mM NaCl, pH 7.5, 10% DMSO, tested a minimum of three times.
Format: biochemical
Method in brief: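 Run in pH 7.5 HEPES (100 mM) with 500 mM NaCl and 10% DMSO, with compound preincubated at room temperature or not before adding 1.29 mM Z-Lys-SBzl. Free thiol released by Factor D reacts with DTNB, and rate is followed at 405 nm minus 690 nm over 600 s. IC50 derives from rate-based inhibition, minimum three replicates.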

Sequence of Factor D (P00746 26-253): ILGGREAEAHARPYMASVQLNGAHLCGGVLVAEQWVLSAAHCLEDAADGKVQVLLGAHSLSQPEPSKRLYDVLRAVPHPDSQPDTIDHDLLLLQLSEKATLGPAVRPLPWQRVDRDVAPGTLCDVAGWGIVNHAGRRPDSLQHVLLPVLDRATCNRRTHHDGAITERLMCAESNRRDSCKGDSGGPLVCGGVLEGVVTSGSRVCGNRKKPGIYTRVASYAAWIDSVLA

**Q.** Which IC50 does the source give for Nc1ncnc2c1cnn2CC(=O)N1[C@@H]2C[C@@H]2C[C@H]1C(=O)Nc1cccc(Br)n1 [Compound 79a, (1R,3S,5R)-2-(2-(4-amino-1H-pyrazolo[3,4-d]pyrimidin-1-yl)acetyl)-N-(6-bromopyridin-2-yl)-2-azabicyclo[3.1.0]hexane-3-carboxamide] here?
**A.** 100 to 1000 nM

**Q.** Nc1ncnc2c1ccn2CC(=O)N1[C@@H]2C[C@@H]2C[C@H]1C(=O)Nc1cccc(Br)n1 [Compound 80a, (1R,3S,5R)-2-(2-(4-amino-7H-pyrrolo[2,3-d]pyrimidin-7-yl)acetyl)-N-(6-bromopyridin-2-yl)-2-azabicyclo[3.1.0]hexane-3-carboxamide] was tested. Which IC50 did it give?
**A.** < 100 nM

**Q.** With Nc1ncnc2c1ccn2CC(=O)N1[C@@H]2C[C@@H]2C[C@H]1C(=O)NCc1cccc(Cl)c1F [Compound 81a, (1R,3S,5R)-2-(2-(4-amino-7H-pyrrolo[2,3-d]pyrimidin-7-yl)acetyl)-N-(3-chloro-2-fluorobenzyl)-2-azabicyclo[3.1.0]hexane-3-carboxamide] as the compound, how does the IC50 read?
**A.** < 100 nM

**Q.** With CNc1ncnc2c1cnn2CC(=O)N1[C@@H]2C[C@@H]2C[C@H]1C(=O)Nc1cccc(Br)n1 [Compound 82a, (1R,3S,5R)—N-(6-bromopyridin-2-yl)-2-(2-(4-(methylamino)-1H-pyrazolo[3,4-d]pyrimidin-1-yl)acetyl)-2-azabicyclo[3.1.0]hexane-3-carboxamide] as the compound, how does the IC50 read?
**A.** > 1000 nM

**Q.** For Nc1ccnc2c1ccn2CC(=O)N1[C@@H]2C[C@@H]2C[C@H]1C(=O)Nc1cccc(Br)n1 [Compound 83d, (1R,3S,5R)-2-(2-(4-amino-1H-pyrrolo[2,3-b]pyridin-1-yl)acetyl)-N-(6-bromopyridin-2-yl)-2-azabicyclo[3.1.0]hexane-3-carboxamide], which IC50 is on record?
**A.** 100 to 1000 nM

**Q.** With Nc1ncnc2c1ncn2CC(=O)N1[C@@H]2C[C@@H]2C[C@H]1C(=O)Nc1cccc(Br)n1 [Compound 84a, (1R,3S,5R)-2-(2-(6-amino-9H-purin-9-yl)acetyl)-N-(6-bromopyridin-2-yl)-2-azabicyclo[3.1.0]hexane-3-carboxamide] as the compound, how does the IC50 read?
**A.** 100 to 1000 nM

**Q.** For Nc1cccc2c1ccn2CC(=O)N1[C@@H]2C[C@@H]2C[C@H]1C(=O)Nc1cccc(Br)n1 [Compound 85b, (1R,3S,5R)-2-(2-(4-amino-1H-indol-1-yl)acetyl)-N-(6-bromopyridin-2-yl)-2-azabicyclo[3.1.0]hexane-3-carboxamide], which IC50 is on record?
**A.** > 1000 nM

**Q.** With C[C@H](NC(=O)[C@@H]1C[C@H]2C[C@H]2N1C(=O)Cn1ccc2c(N)ncnc21)c1cccc(Cl)c1F [Compound 86b, (1R,3S,5R)-2-(2-(4-amino-7H-pyrrolo[2,3-d]pyrimidin-7-yl)acetyl)-N—((S)-1-(3-chloro-2-fluorophenyl)ethyl)-2-azabicyclo[3.1.0]hexane-3-carboxamide] as the compound, how does the IC50 read?
**A.** 100 to 1000 nM

**Q.** With Nc1nc(N)c2ccn(CC(=O)N3[C@@H]4C[C@@H]4C[C@H]3C(=O)Nc3cccc(Br)n3)c2n1 [Compound 87f, (1R,3S,5R)—N-(6-bromopyridin-2-yl)-2-(2-(2,4-diamino-7H-pyrrolo[2,3-d]pyrimidin-7-yl)acetyl)-2-azabicyclo[3.1.0]hexane-3-carboxamide] as the compound, how does the IC50 read?
**A.** > 1000 nM

**Q.** How did the IC50 turn out when Nc1nccc2c1ccn2CC(=O)N1[C@@H]2C[C@@H]2C[C@H]1C(=O)NCc1cccc(Cl)c1F [Compound 88f, (1R,3S,5R)-2-(2-(4-amino-1H-pyrrolo[3,2-c]pyridin-1-yl)acetyl)-N-(3-chloro-2-fluorobenzyl)-2-azabicyclo[3.1.0]hexane-3-carboxamide] was run?
**A.** > 1000 nM

**Q.** With Nc1ncc2ncn(CC(=O)N3[C@@H]4C[C@@H]4C[C@H]3C(=O)Nc3cccc(Br)n3)c2n1 [Compound 89b, (1R,3S,5R)-2-(2-(2-amino-9H-purin-9-yl)acetyl)-N-(6-bromopyridin-2-yl)-2-azabicyclo[3.1.0]hexane-3-carboxamide] as the compound, how does the IC50 read?
**A.** 100 to 1000 nM

**Q.** How did the IC50 turn out when Nc1nc(Cl)nc2c1ccn2CC(=O)N1[C@@H]2C[C@@H]2C[C@H]1C(=O)Nc1cccc(Br)n1 [Compound 90d, (1R,3S,5R)-2-(2-(4-amino-2-chloro-7H-pyrrolo[2,3-d]pyrimidin-7-yl)acetyl)-N-(6-bromopyridin-2-yl)-2-azabicyclo[3.1.0]hexane-3-carboxamide] was run?
**A.** > 1000 nM

**Q.** With Nc1ncnc2c1ncn2CC(=O)N1[C@@H]2C[C@@H]2C[C@H]1C(=O)NCc1cccc(Cl)c1F [Compound 91a, (1R,3S,5R)-2-(2-(6-amino-9H-purin-9-yl)acetyl)-N-(3-chloro-2-fluorobenzyl)-2-azabicyclo[3.1.0]hexane-3-carboxamide] as the compound, how does the IC50 read?
**A.** < 100 nM

**Q.** With Nc1nc(N)c2ncn(CC(=O)N3[C@@H]4C[C@@H]4C[C@H]3C(=O)Nc3cccc(Br)n3)c2n1 [Compound 92b, (1R,3S,5R)—N-(6-bromopyridin-2-yl)-2-(2-(2,6-diamino-9H-purin-9-yl)acetyl)-2-azabicyclo[3.1.0]hexane-3-carboxamide] as the compound, how does the IC50 read?
**A.** > 1000 nM

**Q.** For Nc1ncnc2c1ncn2CC(=O)N1C[C@H](F)C[C@H]1C(=O)Nc1cccc(Br)n1 [Compound 93a, (2S,4R)-1-(2-(6-amino-9H-purin-9-yl)acetyl)-N-(6-bromopyridin-2-yl)-4-fluoropyrrolidine-2-carboxamide], which IC50 is on record?
**A.** 100 to 1000 nM

**Q.** Which IC50 does the source give for Nc1ncnc2c1ncn2CC(=O)N1[C@@H]2C[C@@H]2C[C@H]1C(=O)OCc1ccccc1 [Compound 94b, (1R,3S,5R)-benzyl 2-(2-(6-amino-9H-purin-9-yl)acetyl)-2-azabicyclo[3.1.0]hexane-3-carboxylate] here?
**A.** > 1000 nM

**Q.** For CC(C)(C)CCNC(=O)[C@@H]1C[C@H]2C[C@H]2N1C(=O)Cn1cnc2c(N)ncnc21 [Compound 95c, (1R,3S,5R)-2-(2-(6-amino-9H-purin-9-yl)acetyl)-N-(3,3-dimethylbutyl)-2-azabicyclo[3.1.0]hexane-3-carboxamide], which IC50 is on record?
**A.** > 1000 nM

**Q.** How did the IC50 turn out when CN(C)c1nc(N)c2ncn(CC(=O)N3[C@@H]4C[C@@H]4C[C@H]3C(=O)NCc3cccc(Cl)c3F)c2n1 [Compound 96e, (1R,3S,5R)-2-(2-(6-amino-2-(dimethylamino)-9H-purin-9-yl)acetyl)-N-(3-chloro-2-fluorobenzyl)-2-azabicyclo[3.1.0]hexane-3-carboxamide] was run?
**A.** > 1000 nM

**Q.** How did the IC50 turn out when CC1(C)CCCC(NC(=O)[C@@H]2C[C@H]3C[C@H]3N2C(=O)Cn2cnc3c(N)ncnc32)C1 (stereo partly drawn) [Compound 97b, (1R,3S,5R)-2-(2-(6-amino-9H-purin-9-yl)acetyl)-N-(3,3-dimethylcyclohexyl)-2-azabicyclo[3.1.0]hexane-3-carboxamide] was run?
**A.** > 1000 nM

**Q.** Nc1ncnc2c1ncn2CC(=O)N1[C@@H]2C[C@@H]2C[C@H]1C(=O)N[C@@H]1C[C@H]1c1ccccc1Cl [Compound 98b, (1R,3S,5R)-2-(2-(6-amino-9H-purin-9-yl)acetyl)-N-((1R,2S)-2-(2-chlorophenyl)cyclopropyl)-2-azabicyclo[3.1.0]hexane-3-carboxamide] was tested. Which IC50 did it give?
**A.** 100 to 1000 nM

**Q.** How did the IC50 turn out when Nc1ncnc2c1ncn2CC(=O)N1[C@@H]2C[C@@H]2C[C@H]1C(=O)NCCOC(F)(F)F [Compound 99b, (1R,3S,5R)-2-(2-(6-amino-9H-purin-9-yl)acetyl)-N-(2-(trifluoromethoxy)ethyl)-2-azabicyclo[3.1.0]hexane-3-carboxamide] was run?
**A.** > 1000 nM

**Q.** How did the IC50 turn out when CC1CC(CNC(=O)[C@@H]2C[C@H]3C[C@H]3N2C(=O)Cn2cnc3c(N)ncnc32)C1 (stereo partly drawn) [Compound 100b, (1R,3S,5R)-2-(2-(6-amino-9H-purin-9-yl)acetyl)-N-((3-methylcyclobutyl)methyl)-2-azabicyclo[3.1.0]hexane-3-carboxamide] was run?
**A.** > 1000 nM

**Q.** Which IC50 does the source give for Nc1ncnc2c1ncn2CC(=O)N1[C@@H]2C[C@@H]2C[C@H]1C(=O)NCc1ccccc1 [Compound 101b, (1R,3S,5R)-2-(2-(6-amino-9H-purin-9-yl)acetyl)-N-benzyl-2-azabicyclo[3.1.0]hexane-3-carboxamide] here?
**A.** 100 to 1000 nM

**Q.** Which IC50 does the source give for Nc1ncnc2c1ncn2CC(=O)N1[C@@H]2C[C@@H]2C[C@H]1C(=O)NC1CCCC(Cl)(Cl)C1 (stereo partly drawn) [Compound 102b, (1R,3S,5R)-2-(2-(6-amino-9H-purin-9-yl)acetyl)-N-(3,3-dichlorocyclohexyl)-2-azabicyclo[3.1.0]hexane-3-carboxamide] here?
**A.** 100 to 1000 nM

**Q.** How did the IC50 turn out when Nc1ncnc2c1ncn2CC(=O)N1[C@@H]2C[C@@H]2C[C@H]1C(=O)NCC1CC1(Cl)Cl (stereo partly drawn) [Compound 103b, (1R,3S,5R)-2-(2-(6-amino-9H-purin-9-yl)acetyl)-N-((2,2-dichlorocyclopropyl)methyl)-2-azabicyclo[3.1.0]hexane-3-carboxamide] was run?
**A.** 100 to 1000 nM

**Q.** With Nc1ncnc2c1ncn2CC(=O)N1C[C@H](F)C[C@H]1C(=O)NCc1cccc(Cl)c1F [Compound 104a, (2S,4R)-1-(2-(6-amino-9H-purin-9-yl)acetyl)-N-(3-chloro-2-fluorobenzyl)-4-fluoropyrrolidine-2-carboxamide] as the compound, how does the IC50 read?
**A.** < 100 nM

**Q.** How did the IC50 turn out when Nc1ncnc2c1ncn2CC(=O)N1CCS[C@H]1C(=O)NCc1cccc(Cl)c1F [Compound 105b, (S)-3-(2-(6-amino-9H-purin-9-yl)acetyl)-N-(3-chloro-2-fluorobenzyl)thiazolidine-2-carboxamide] was run?
**A.** 100 to 1000 nM

**Q.** With Nc1ncnc2c1ncn2CC(=O)N1[C@@H]2C[C@@H]2C[C@H]1C(=O)Nc1cccc(OC(F)(F)F)c1 [Compound 107b, (1R,3S,5R)-2-(2-(6-amino-9H-purin-9-yl)acetyl)-N-(3-(trifluoromethoxy)phenyl)-2-azabicyclo[3.1.0]hexane-3-carboxamide] as the compound, how does the IC50 read?
**A.** > 1000 nM

**Q.** For COc1cccc(NC(=O)[C@@H]2C[C@H]3C[C@H]3N2C(=O)Cn2cnc3c(N)ncnc32)c1F [Compound 108b, (1R,3S,5R)-2-(2-(6-amino-9H-purin-9-yl)acetyl)-N-(2-fluoro-3-methoxyphenyl)-2-azabicyclo[3.1.0]hexane-3-carboxamide], which IC50 is on record?
**A.** > 1000 nM

**Q.** Which IC50 does the source give for Nc1ncnc2c1ncn2CC(=O)N1[C@H](C(=O)NCc2cccc(Cl)c2F)C[C@@H]2C[C@@H]21 [Compound 109e, (1S,3S,5S)-2-(2-(6-amino-9H-purin-9-yl)acetyl)-N-(3-chloro-2-fluorobenzyl)-2-azabicyclo[3.1.0]hexane-3-carboxamide] here?
**A.** 100 to 1000 nM
